{"source": "paper PMC9403976", "about": "“Elucidating the path to Plasmodium prolyl-tRNA synthetase inhibitors that overcome halofuginone resistance” (Nature Communications, 2022)", "key": {"P. falciparum Dd2-2D4": {"system": "P. falciparum Dd2-2D4", "assay": "P. falciparum asexual blood stage (ABS) growth assay, SYBR Green, 72 h, wild-type parasites", "assay_type": "cell-based, Plasmodium falciparum", "settings": "Plasmodium falciparum, DD2; SI Fig 16b; values on -log scale; read-out: ABS - Dd2-2D4 (converted)"}, "PfcProRS": {"target": "T1, PfcProRS (Plasmodium falciparum, UniProt Q8I5R7)", "T1 construct": "made in house; host or cells: E. coli SoluBL-21", "T1 sequence (Q8I5R7 249-746)": "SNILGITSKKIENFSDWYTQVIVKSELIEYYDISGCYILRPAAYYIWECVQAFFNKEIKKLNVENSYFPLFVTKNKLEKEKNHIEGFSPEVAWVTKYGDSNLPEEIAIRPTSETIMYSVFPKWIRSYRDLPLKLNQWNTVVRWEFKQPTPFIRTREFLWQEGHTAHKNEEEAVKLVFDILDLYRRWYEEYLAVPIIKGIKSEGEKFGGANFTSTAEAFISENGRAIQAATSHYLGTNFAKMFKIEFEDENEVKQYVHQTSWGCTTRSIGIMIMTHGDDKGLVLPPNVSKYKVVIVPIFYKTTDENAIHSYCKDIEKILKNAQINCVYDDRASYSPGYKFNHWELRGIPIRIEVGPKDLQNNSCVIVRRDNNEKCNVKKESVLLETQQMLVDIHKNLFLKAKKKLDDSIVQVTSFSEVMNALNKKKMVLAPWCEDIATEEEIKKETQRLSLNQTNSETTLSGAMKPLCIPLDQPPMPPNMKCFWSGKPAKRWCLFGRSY", "assay_type": "binding", "settings": "for dose-response signal (normalized), SI Fig 8: single replicates"}, "HsProRS": {"target": "HsProRS (Homo sapiens, UniProt P07814)", "sequence (P07814 996-1512)": "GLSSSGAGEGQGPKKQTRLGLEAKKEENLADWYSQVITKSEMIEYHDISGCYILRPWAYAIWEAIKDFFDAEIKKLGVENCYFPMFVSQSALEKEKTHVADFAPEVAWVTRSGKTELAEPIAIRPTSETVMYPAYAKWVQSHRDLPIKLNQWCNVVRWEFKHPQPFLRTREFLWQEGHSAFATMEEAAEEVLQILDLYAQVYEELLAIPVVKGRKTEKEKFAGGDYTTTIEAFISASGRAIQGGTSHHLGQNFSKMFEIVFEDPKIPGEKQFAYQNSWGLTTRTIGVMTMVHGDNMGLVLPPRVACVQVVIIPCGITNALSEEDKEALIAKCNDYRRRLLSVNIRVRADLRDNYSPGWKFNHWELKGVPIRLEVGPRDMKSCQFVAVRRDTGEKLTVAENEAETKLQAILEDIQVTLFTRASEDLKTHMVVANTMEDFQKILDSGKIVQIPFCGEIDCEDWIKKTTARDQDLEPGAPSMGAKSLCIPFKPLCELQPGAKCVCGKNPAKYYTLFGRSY", "assay": "TR-FRET ligand displacement assay with tracer MAT379 (CoraFluor-1-Halo and anti-His6 antibody formats)", "assay_type": "binding", "design": "made in house; host or cells: E. coli SoluBL-21", "settings": "for TR-FRET dose-response, normalized signal (SI Fig 11): individual replicates"}}, "note": "Several values for one entry are separate records, joined by “and”; a condition that tells them apart may be missing. Equal values may be shown once. Read-outs that look alike come from different tables or passages of the source."}
{"smiles": "O=C(NC1Cc2ccccc2C1)c1nccnc1NC(=O)N1CCC(CCO)CC1", "note": "[compound 12]", "values": [{"measurement": "EC50", "setting": "P. falciparum Dd2-2D4", "result": 153, "unit": "nM"}, {"measurement": "dose-response signal (normalized), SI Fig 8", "setting": "PfcProRS; Log[inhibitor] (M) -5.000", "result": "1.96E-01 and 6.39E-02 and 9.88E-02"}, {"measurement": "dose-response signal (normalized), SI Fig 8", "setting": "PfcProRS; Log[inhibitor] (M) -5.301", "result": "1.70E-01 and 1.45E-01 and 2.26E-01"}, {"measurement": "dose-response signal (normalized), SI Fig 8", "setting": "PfcProRS; Log[inhibitor] (M) -5.601", "result": "3.61E-01 and 2.68E-01 and 3.67E-01"}, {"measurement": "dose-response signal (normalized), SI Fig 8", "setting": "PfcProRS; Log[inhibitor] (M) -5.904", "result": "5.30E-01 and 5.32E-01 and 5.86E-01"}, {"measurement": "dose-response signal (normalized), SI Fig 8", "setting": "PfcProRS; Log[inhibitor] (M) -6.208", "result": "7.40E-01 and 8.32E-01 and 8.18E-01"}, {"measurement": "dose-response signal (normalized), SI Fig 8", "setting": "PfcProRS; Log[inhibitor] (M) -6.509", "result": "9.11E-01 and 8.45E-01 and 9.67E-01"}, {"measurement": "dose-response signal (normalized), SI Fig 8", "setting": "PfcProRS; Log[inhibitor] (M) -6.796", "result": "1.07E+00 and 9.35E-01 and 8.42E-01"}, {"measurement": "dose-response signal (normalized), SI Fig 8", "setting": "PfcProRS; Log[inhibitor] (M) -7.108", "result": "1.04E+00 and 9.91E-01 and 9.07E-01"}, {"measurement": "dose-response signal (normalized), SI Fig 8", "setting": "PfcProRS; Log[inhibitor] (M) -7.409", "result": "1.05E+00 and 1.07E+00 and 9.30E-01"}, {"measurement": "dose-response signal (normalized), SI Fig 8", "setting": "PfcProRS; Log[inhibitor] (M) -7.710", "result": "9.50E-01 and 9.05E-01 and 1.01E+00"}, {"measurement": "dose-response signal (normalized), SI Fig 8", "setting": "PfcProRS; Log[inhibitor] (M) -8.000", "result": "1.00E+00 and 9.33E-01 and 9.19E-01"}, {"measurement": "dose-response signal (normalized), SI Fig 8", "setting": "PfcProRS; Log[inhibitor] (M) -8.301", "result": "1.00E+00 and 9.74E-01 and 1.08E+00"}, {"measurement": "dose-response signal (normalized), SI Fig 8", "setting": "PfcProRS; Log[inhibitor] (M) -8.602", "result": "9.86E-01 and 9.74E-01 and 9.65E-01"}, {"measurement": "dose-response signal (normalized), SI Fig 8", "setting": "PfcProRS; Log[inhibitor] (M) -9.000", "result": "9.41E-01 and 9.53E-01 and 9.73E-01"}, {"measurement": "dose-response signal (normalized), SI Fig 8", "setting": "PfcProRS; Log[inhibitor] (M) -9.301", "result": "9.78E-01 and 8.31E-01 and 1.01E+00"}, {"measurement": "PfcProRS -- best Kd", "setting": "PfcProRS; SI Fig 16a, values on -log scale", "result": 6.470}, {"measurement": "Kd", "setting": "HsProRS; HsProRS (KD [nM]) mean, no added proline/ATP (-)", "result": 687, "unit": "nM"}, {"measurement": "Kd", "setting": "HsProRS; HsProRS - best Kd, SI Fig 16a, values on -log scale", "result": 150, "unit": "nM"}, {"measurement": "normalized TR-FRET ligand displacement signal, dose-response replicates (SI Fig 6)", "setting": "HsProRS; Log[inhibitor] (M) -5.000", "result": "1.59E-01 and 1.60E-01 and 2.09E-01"}, {"measurement": "TR-FRET dose-response, normalized signal (SI Fig 11)", "setting": "HsProRS; Log[inhibitor] (M) -5.000", "result": "3.68E-02 (2×) and 3.81E-02"}, {"measurement": "normalized TR-FRET ligand displacement signal, dose-response replicates (SI Fig 6)", "setting": "HsProRS; Log[inhibitor] (M) -5.301", "result": "3.23E-01 and 2.51E-01 and 1.66E-01"}, {"measurement": "TR-FRET dose-response, normalized signal (SI Fig 11)", "setting": "HsProRS; Log[inhibitor] (M) -5.301", "result": "1.17E-01 and 1.16E-01 and 1.37E-01"}, {"measurement": "normalized TR-FRET ligand displacement signal, dose-response replicates (SI Fig 6)", "setting": "HsProRS; Log[inhibitor] (M) -5.601", "result": "4.15E-01 (2×) and 3.76E-01"}, {"measurement": "TR-FRET dose-response, normalized signal (SI Fig 11)", "setting": "HsProRS; Log[inhibitor] (M) -5.601", "result": "3.29E-01 and 2.78E-01 and 2.37E-01"}, {"measurement": "normalized TR-FRET ligand displacement signal, dose-response replicates (SI Fig 6)", "setting": "HsProRS; Log[inhibitor] (M) -5.904", "result": "6.44E-01 and 5.20E-01 and 5.13E-01"}, {"measurement": "TR-FRET dose-response, normalized signal (SI Fig 11)", "setting": "HsProRS; Log[inhibitor] (M) -5.904", "result": "4.76E-01 and 4.29E-01 and 4.93E-01"}, {"measurement": "normalized TR-FRET ligand displacement signal, dose-response replicates (SI Fig 6)", "setting": "HsProRS; Log[inhibitor] (M) -6.208", "result": "7.49E-01 and 7.87E-01 and 7.20E-01"}, {"measurement": "TR-FRET dose-response, normalized signal (SI Fig 11)", "setting": "HsProRS; Log[inhibitor] (M) -6.208", "result": "5.93E-01 and 6.01E-01 and 5.70E-01"}, {"measurement": "normalized TR-FRET ligand displacement signal, dose-response replicates (SI Fig 6)", "setting": "HsProRS; Log[inhibitor] (M) -6.509", "result": "9.12E-01 and 8.62E-01 and 8.67E-01"}, {"measurement": "TR-FRET dose-response, normalized signal (SI Fig 11)", "setting": "HsProRS; Log[inhibitor] (M) -6.509", "result": "7.07E-01 and 6.82E-01 and 7.18E-01"}, {"measurement": "normalized TR-FRET ligand displacement signal, dose-response replicates (SI Fig 6)", "setting": "HsProRS; Log[inhibitor] (M) -6.796", "result": "1.06E+00 and 1.12E+00 and 9.20E-01"}, {"measurement": "TR-FRET dose-response, normalized signal (SI Fig 11)", "setting": "HsProRS; Log[inhibitor] (M) -6.796", "result": "7.97E-01 and 7.75E-01 and 7.79E-01"}, {"measurement": "normalized TR-FRET ligand displacement signal, dose-response replicates (SI Fig 6)", "setting": "HsProRS; Log[inhibitor] (M) -7.108", "result": "1.07E+00 and 1.02E+00 and 1.12E+00"}, {"measurement": "TR-FRET dose-response, normalized signal (SI Fig 11)", "setting": "HsProRS; Log[inhibitor] (M) -7.108", "result": "8.56E-01 and 8.75E-01 and 8.83E-01"}, {"measurement": "normalized TR-FRET ligand displacement signal, dose-response replicates (SI Fig 6)", "setting": "HsProRS; Log[inhibitor] (M) -7.409", "result": "1.02E+00 and 1.06E+00 (2×)"}, {"measurement": "TR-FRET dose-response, normalized signal (SI Fig 11)", "setting": "HsProRS; Log[inhibitor] (M) -7.409", "result": "8.85E-01 and 8.47E-01 and 8.63E-01"}, {"measurement": "normalized TR-FRET ligand displacement signal, dose-response replicates (SI Fig 6)", "setting": "HsProRS; Log[inhibitor] (M) -7.710", "result": "9.85E-01 and 1.01E+00 and 9.72E-01"}, {"measurement": "TR-FRET dose-response, normalized signal (SI Fig 11)", "setting": "HsProRS; Log[inhibitor] (M) -7.710", "result": "8.80E-01 and 8.88E-01 and 8.59E-01"}, {"measurement": "normalized TR-FRET ligand displacement signal, dose-response replicates (SI Fig 6)", "setting": "HsProRS; Log[inhibitor] (M) -8.000", "result": "9.44E-01 and 9.64E-01 and 9.22E-01"}, {"measurement": "TR-FRET dose-response, normalized signal (SI Fig 11)", "setting": "HsProRS; Log[inhibitor] (M) -8.000", "result": "9.20E-01 and 9.38E-01 and 9.24E-01"}, {"measurement": "normalized TR-FRET ligand displacement signal, dose-response replicates (SI Fig 6)", "setting": "HsProRS; Log[inhibitor] (M) -8.301", "result": "9.32E-01 and 1.05E+00 and 8.26E-01"}, {"measurement": "TR-FRET dose-response, normalized signal (SI Fig 11)", "setting": "HsProRS; Log[inhibitor] (M) -8.301", "result": "8.82E-01 and 8.99E-01 and 9.20E-01"}, {"measurement": "normalized TR-FRET ligand displacement signal, dose-response replicates (SI Fig 6)", "setting": "HsProRS; Log[inhibitor] (M) -8.602", "result": "1.02E+00 and 1.07E+00 and 9.72E-01"}, {"measurement": "TR-FRET dose-response, normalized signal (SI Fig 11)", "setting": "HsProRS; Log[inhibitor] (M) -8.602", "result": "9.41E-01 and 8.91E-01 and 9.25E-01"}, {"measurement": "normalized TR-FRET ligand displacement signal, dose-response replicates (SI Fig 6)", "setting": "HsProRS; Log[inhibitor] (M) -9.000", "result": "9.71E-01 and 8.87E-01 and 1.00E+00"}, {"measurement": "TR-FRET dose-response, normalized signal (SI Fig 11)", "setting": "HsProRS; Log[inhibitor] (M) -9.000", "result": "9.29E-01 and 9.20E-01 and 9.52E-01"}, {"measurement": "normalized TR-FRET ligand displacement signal, dose-response replicates (SI Fig 6)", "setting": "HsProRS; Log[inhibitor] (M) -9.301", "result": "1.06E+00 and 9.50E-01 and 9.98E-01"}, {"measurement": "TR-FRET dose-response, normalized signal (SI Fig 11)", "setting": "HsProRS; Log[inhibitor] (M) -9.301", "result": "9.00E-01 and 9.10E-01 and 9.03E-01"}]}
